What was measured:
roc22182 = biological target: T1, roc22182; assay: Isothermal titration calorimetry at 25 °C with rocuronium in 20 mM HEPES, 50 mM NaCl, pH 8, no DMSO, single-site binding model.; conditions: read-out: KD (μM), ITC, rocuronium
T1 construct: N-terminal hexahistidine tag; original design
Experimental: (§1) Binding affinity of designed proteins was assessed by titrating purified protein with ligand using a microcal PEAQ ITC-Automated instrument. Both protein and ligand were prepared in identical buffers that were degassed by bottle-top filtration. […] All titrations were performed at 25 °C and 19 total injections, 0.4 μL for the first injection and 2 μL for the remaining 18. Resulting titration data were analyzed with the Malvern Panalytical ITC Analysis software, and a single-site binding model was used to fit the resulting data.
(§2) Supplementary Table 2. Small-molecule binding characterization results
(§3) Target Design name Number of KD (μM) KD determination

roc22182.1 [1] = biological target: T2, roc22182.1; assay: as above; conditions: read-out: KD (μM), ITC, rocuronium
T2 construct: N-terminal hexahistidine tag; 9 mutations compared to the original design
Experimental: as §1, §2, §3

iri807.1 [2] = biological target: T3, iri807.1; assay: Fluorescence polarization cross-reactivity assay with TAMRA-labelled ligands at 5 nM (HCY, OHP, WRF) or 10 nM (SN-38) titrated with binder or albumin.; assay type: binding; conditions: read-out: KD (μM), specificity table, TAMRA-labelled targets
T3 construct: N-terminal hexahistidine tag; 3 mutations compared to the original design
Source text: (§4) measured against all six targets. Raw binding traces can be found in Supplementary

wrf1071 [3] = biological target: T4, wrf1071; assay: as above; assay type: binding; conditions: read-out: KD (μM), specificity table, TAMRA-labelled targets
T4 construct: N-terminal hexahistidine tag; original design
Source text: as §4

hcy129.1 [4] = biological target: T5, hcy129.1; assay: as above; assay type: binding; conditions: read-out: KD (μM), specificity table, TAMRA-labelled targets
T5 construct: N-terminal hexahistidine tag; 4 mutations compared to the original design
Source text: as §4

roc22182.1 [5] = biological target: T2, roc22182.1; assay: as above; assay type: binding; conditions: read-out: KD (μM), specificity table, TAMRA-labelled targets
Source text: as §4

wrf1071 [6] = biological target: T4, wrf1071; assay: Isothermal titration calorimetry at 25 °C with warfarin or apixaban, 5% DMSO in all solutions, single-site binding model.; conditions: read-out: KD (μM), ITC, warfarin and apixaban
Experimental: as §1

wrf929 = biological target: T6, wrf929; assay: as above; conditions: read-out: KD (μM), ITC, warfarin and apixaban
T6 construct: N-terminal hexahistidine tag; original design
Experimental: as §1, §2, §3

ohp1952 = biological target: T7, ohp1952; assay: Fluorescence polarization cross-reactivity assay with TAMRA-labelled ligands at 5 nM (HCY, OHP, WRF) or 10 nM (SN-38) titrated with binder or albumin.; assay type: binding; conditions: read-out: KD (μM), specificity table, TAMRA-labelled targets
T7 construct: N-terminal hexahistidine tag; original design
Source text: as §4

albumin = biological target: T8, albumin; assay: as above; assay type: binding; conditions: read-out: KD (μM), specificity table, TAMRA-labelled targets
T8 construct: control protein
Source text: as §4

hcy129.1 [7] = biological target: T5, hcy129.1; assay: Isothermal titration calorimetry of purified designs with unlabelled ligand at 25 °C, single-site fit; 1% DMSO for cortisol, 5% DMSO for warfarin and apixaban, HEPES pH 8 for rocuronium.; assay type: binding; conditions: read-out: KD (μM) ITC
Experimental: Characterization of binding affinity by ITC
as §1

hcy129.1_CID = biological target: T9, hcy129.1_CID; assay: Isothermal titration calorimetry at 25 °C with cortisol, 1% DMSO in all solutions, single-site binding model.; conditions: read-out: KD (μM), ITC, cortisol
T9 construct: 7 mutations compared to the original design
Experimental: as §1, §2, §3

hcy129.1 [8] = biological target: T5, hcy129.1; assay: as above; conditions: read-out: KD (μM), ITC, cortisol
Experimental: as §1, §2, §3

hcy129_mpnn5 = biological target: T10, hcy129_mpnn5; assay: as above; conditions: read-out: KD (μM), ITC, cortisol
T10 construct: ProteinMPNN surface-redesigned version; 9 mutations compared to the original design as printed
Experimental: as §1, §2, §3

hcy129 = biological target: T11, hcy129; assay: as above; conditions: read-out: KD (μM), ITC, cortisol
T11 construct: N-terminal hexahistidine tag; original design
Experimental: as §1, §2, §3

[9] = Cross-reactivity BLI binding to APX-Biotin; conditions: APX-Biotin immobilized, binders titrated 3-fold from 25uM
Experimental: (§5) Biolayer interferometry (BLI) was used to estimate the binding affinity and screen for binding of the purified proteins and target small-molecules APX, and SN-38. […] 1 μM of small-molecule targets with biotin conjugated (APX-Biotin and SN-38-Biotin) were used as ligands to be immobilized to the Octet Streptavidin biosensors (Sartorius). Titration experiments were performed at 25 °C, and the kinetic response data was collected using Octet RED96 and R8 (ForteBio). The resulting responses of the analytes were corrected using the signal from the reference buffer, and further analysis was performed using the Octet Data Analysis software.
(§6) We performed an all by all binding experiment between all targets and representative binders for each target. […] Fluorescence polarization filter cube (Red1 FP, EX 530/25 nm;EM 590/35 nm, Agilent) was used to measure polarization. […] Biotinylated APX and ROC were immobilized to the Streptavidin biosensor and all binders were titrated 3-fold starting from 25uM. Other experimental conditions were kept the same as described above for characterization using FP and BLI.

[10] = Cross-reactivity FP binding to HCY-TAMRA; conditions: HCY-TAMRA 5 nM
Experimental: (§7) Two-fold serial dilutions of the binder protein were prepared in 24 wells with constant amounts of the target ligand, and the plate was incubated at room temperature, shaking for at least 30 min. Fluorescence polarization filter cube (Red FP, EX 530/25 nm;EM 590/35 nm, Agilent) was used to measure polarization with the plate reader (Synergy Neo2, Biotek). A binding isotherm model was used to fit the data and estimate KD.
as §6

[11] = Cross-reactivity FP binding to SN-38-TAMRA; conditions: SN-38-TAMRA 10 nM
Experimental: as §7, §6

[12] = Cross-reactivity BLI binding to ROC-Biotin; conditions: ROC-Biotin immobilized, binders titrated 3-fold from 25uM
Experimental: as §5, §6

[13] = Cross-reactivity FP binding to OHP-TAMRA; conditions: OHP-TAMRA 5 nM
Experimental: as §7, §6

iri807 = biological target: T12, iri807; assay: Fluorescence polarization with 6 nM fluorophore-labelled OHP-AF488 or SN-38-TAMRA titrated with binder protein in PBS at room temperature, binding isotherm fit.; conditions: read-out: KD (μM), FP
T12 construct: N-terminal hexahistidine tag; original design
Experimental: (§8) Two-fold serial dilutions of the binder protein were prepared in 24 wells with constant amounts of the target ligand, and the plate was incubated at room temperature, shaking for at least 30 min. […] A binding isotherm model was used to fit the data and estimate KD.
as §2, §3

iri807.1 [14] = biological target: T3, iri807.1; assay: as above; conditions: read-out: KD (μM), FP
Experimental: as §8, §2, §3

iri3009 = biological target: T13, iri3009; assay: as above; conditions: read-out: KD (μM), FP
T13 construct: N-terminal hexahistidine tag; original design
Experimental: as §8, §2, §3

iri807.2 = biological target: T14, iri807.2; assay: as above; conditions: read-out: KD (μM), FP
T14 construct: N-terminal hexahistidine tag; 3 mutations compared to the original design
Experimental: as §8, §2, §3

iri807.3 = biological target: T15, iri807.3; assay: as above; conditions: read-out: KD (μM), FP
T15 construct: N-terminal hexahistidine tag; 3 mutations compared to the original design
Experimental: as §8, §2, §3

apx1493 = biological target: T16, apx1493; assay: Isothermal titration calorimetry at 25 °C with warfarin or apixaban, 5% DMSO in all solutions, single-site binding model.; conditions: read-out: KD (μM), ITC, warfarin and apixaban
T16 construct: N-terminal hexahistidine tag; original design
Experimental: as §1

apx1049 = biological target: T17, apx1049; assay: as above; conditions: read-out: KD (μM), ITC, warfarin and apixaban
T17 construct: N-terminal hexahistidine tag; original design
Experimental: as §1

apx2592 = biological target: T18, apx2592; assay: as above; conditions: read-out: KD (μM), ITC, warfarin and apixaban
T18 construct: N-terminal hexahistidine tag; original design
Experimental: as §1

apx1501 = biological target: T19, apx1501; assay: as above; conditions: read-out: KD (μM), ITC, warfarin and apixaban
T19 construct: N-terminal hexahistidine tag; original design
Experimental: as §1

[15] = test system: hcy129.1_CID-SmBiT and miniH11_LgBiT; assay: Cortisol-induced dimerization NanoBiT luminescent sensor; assay type: biochemical; conditions: sensor components 200 nM each, 2 h, DTZ 25 μM; estimated; read-out: EC50 of luminescent signal
Experimental: Immediately after adding the luciferase substrate diphenylterazine (DTZ) at a final concentration of 25 μΜ, the luminescent signal was measured on a Neo2 plate reader (Fig. 4H).
hcy129.1_CID (200 nM) and minibinder designed for CID (miniH11, 200 nM) was titrated with various
ligands and incubated for 2 hours, followed by addition of DTZ (25 μM) to initiate luminescence reaction.
All reactions were carried out at 50 μL final volume in HBS-EP+ buffer (Cytiva).

C=CC[N+]1([C@H]2C[C@H]3[C@@H]4CC[C@H]5C[C@H](O)[C@@H](N6CCOCC6)C[C@]5(C)[C@H]4CC[C@]3(C)[C@H]2OC(C)=O)CCCC1 [rocuronium, rocuronium (ROC)]
Kd (roc22182): > 50 µM | Kd (roc22182.1 [1]): > 4 µM

cortisol-TAMRA (TAMRA conjugate of cortisol) [HCY-TAMRA]
Kd (iri807.1 [2]): 26 µM | Kd (wrf1071 [3]): 67 µM | Kd (hcy129.1 [4]): 0.005 µM | Kd (roc22182.1 [5]): 1.4 µM

CC(=O)CC(c1ccccc1)c1c(O)c2ccccc2oc1=O (stereo not drawn) [warfarin, warfarin (WRF)]
Kd (wrf1071 [6]): 0.83 µM | Kd (wrf929): 5.9 µM

17α-hydroxyprogesterone-TAMRA (TAMRA conjugate) [OHP-TAMRA]
Kd (iri807.1 [2]): 0.27 µM | Kd (ohp1952): 0.005 µM | Kd (hcy129.1 [4]): 0.005 µM | Kd (albumin): 52 µM | Kd (roc22182.1 [5]): 0.078 µM

C[C@]12CCC(=O)C=C1CC[C@@H]1[C@@H]2[C@@H](O)C[C@@]2(C)[C@H]1CC[C@]2(O)C(=O)CO [cortisol, cortisol (HCY)]
Kd (hcy129.1 [7]): 0.068 µM | Kd (hcy129.1_CID): 0.064 µM | Kd (hcy129.1 [8]): 0.065 µM | Kd (hcy129_mpnn5): 3.4 µM | Kd (hcy129): 2.3 µM

Albumin: control protein known for promiscuous binding to hydrophobic ligands; bovine serum albumin per b230
Binding affinity KD [9]: No binding | Binding affinity KD ([9]; listed as albumin): no binding | Binding affinity KD [10]: No binding | Binding affinity KD ([10]; listed as albumin): no binding | Binding affinity KD [11]: No binding | Binding affinity KD ([11]; listed as albumin): no binding | Binding affinity KD [12]: No binding | Binding affinity KD ([12]; listed as albumin): no binding | Binding affinity KD [13]: weak binding

SN-38-TAMRA (fluorophore linker conjugate of SN-38)
Kd (iri807): 0.09 µM | Kd (iri807.1 [14]): 0.059 µM | Kd (iri3009): 1.41 µM | Kd (iri807.2): 0.063 µM | Kd (iri807.3): 0.016 µM | Kd (iri807.1 [2]): 0.048 µM | Kd (wrf1071 [3]): 42 µM

COc1ccc(-n2nc(C(N)=O)c3c2C(=O)N(c2ccc(N4CCCCC4=O)cc2)CC3)cc1 [apixaban, apixaban (APX)]
Kd (apx1493): 9.67 µM | Kd (apx1049): 0.679 µM | Kd (apx2592): 3.16 µM | Kd (apx1501): 5.5 µM

C[C@]12CCC(=O)C=C1CC[C@@H]1[C@@H]2[C@@H](O)C[C@@]2(C)[C@H]1CC[C@]2(O)C(=O)CO [cortisol]
EC50 [15]: 72 nM
